Results on three compounds are retold here after patent US5644055A, “Antihypertensive tricyclic azepine derivatives useful as inhibitors of enkephalinase and ACE” (Ciba-Geigy Corporation, priority 1995, dated 1997).

SMILES strings stand for the structures.

Assay [1] addresses T1, angiotensin-converting enzyme (Oryctolagus cuniculus, UniProt P12822).
T1 sequence (P12822 34-1310): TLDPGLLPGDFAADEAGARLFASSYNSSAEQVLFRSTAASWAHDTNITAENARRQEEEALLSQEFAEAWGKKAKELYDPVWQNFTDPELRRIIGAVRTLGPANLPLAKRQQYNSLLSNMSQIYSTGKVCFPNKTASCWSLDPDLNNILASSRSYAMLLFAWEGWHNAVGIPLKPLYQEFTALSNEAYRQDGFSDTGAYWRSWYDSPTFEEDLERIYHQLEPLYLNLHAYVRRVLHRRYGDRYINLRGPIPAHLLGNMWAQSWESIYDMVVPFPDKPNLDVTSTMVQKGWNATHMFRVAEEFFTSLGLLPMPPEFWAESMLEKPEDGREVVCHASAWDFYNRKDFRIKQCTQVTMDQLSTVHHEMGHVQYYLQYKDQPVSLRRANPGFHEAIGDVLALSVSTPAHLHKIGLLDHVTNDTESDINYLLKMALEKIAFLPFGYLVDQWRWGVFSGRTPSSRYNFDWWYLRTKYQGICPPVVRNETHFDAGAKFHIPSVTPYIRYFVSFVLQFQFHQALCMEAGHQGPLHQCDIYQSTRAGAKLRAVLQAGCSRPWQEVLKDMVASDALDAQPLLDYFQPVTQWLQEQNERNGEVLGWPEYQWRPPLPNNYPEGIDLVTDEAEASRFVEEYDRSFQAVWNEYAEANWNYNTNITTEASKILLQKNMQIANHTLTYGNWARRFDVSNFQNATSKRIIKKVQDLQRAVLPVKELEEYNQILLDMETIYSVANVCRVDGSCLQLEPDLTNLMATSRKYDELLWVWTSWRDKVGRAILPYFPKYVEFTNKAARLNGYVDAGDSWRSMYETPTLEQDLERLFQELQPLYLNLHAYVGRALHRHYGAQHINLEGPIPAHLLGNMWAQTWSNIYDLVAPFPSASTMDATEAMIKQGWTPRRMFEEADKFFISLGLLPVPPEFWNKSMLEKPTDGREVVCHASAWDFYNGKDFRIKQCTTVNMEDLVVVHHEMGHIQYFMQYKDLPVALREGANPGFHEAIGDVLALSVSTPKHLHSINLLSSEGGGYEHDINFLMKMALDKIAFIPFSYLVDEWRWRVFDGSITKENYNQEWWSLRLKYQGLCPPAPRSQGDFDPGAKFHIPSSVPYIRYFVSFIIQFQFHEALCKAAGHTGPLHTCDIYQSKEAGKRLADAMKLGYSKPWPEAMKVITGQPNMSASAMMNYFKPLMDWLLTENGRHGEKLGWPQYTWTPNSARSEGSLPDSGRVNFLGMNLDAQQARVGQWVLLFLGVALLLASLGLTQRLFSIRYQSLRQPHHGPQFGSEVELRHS
Kind of assay: in vitro inhibition of the angiotensin-converting enzyme (hippuryl-histidyl-leucine substrate). To be noted: pH 8.3, 30 minutes at 37° C., read-out: IC50, inhibiting ACE in vitro assay. The assay is classed as biochemical. How it is done:
(§1) In vitro testing is most appropriate for the free carboxylic acids of the invention. The test compound is dissolved in dimethyl sulfoxide, ethanol, or 0.25M sodium bicarbonate solution, and the solution is diluted with buffer to the desired concentration.
The buffer for the ACE assay is 300 mM NaCl, […] KH2 PO4 (pH 8.3). The reaction is initiated by the addition of 100 μl of hippuryl-histidyl-leucine (2 mg/ml) to tubes containing enzyme and drug in a volume of 150 μl and tubes are incubated for 30 minutes at 37° C. The reaction is terminated by the addition of 0.75 ml 0.6N NaOH. 100 μl of freshly prepared O-pthaldehyde solution (2 mg/ml in methanol) is added to the tubes, the contents are mixed and allowed to stand at room temperature. After 10 minutes, 100 μl of 6N HCl is added. The tubes are centrifuged and the supernatant optical density is read at 360 nm. The results are plotted against drug concentration to determine the IC50, i.e., the drug concentration which gives half the activity of the control sample containing no drug.

The target in assay [2] is T2, neutral endopeptidase (NEP, EC 3.4.24.11) (Rattus norvegicus, UniProt P07861).
T2 construct: rat kidney cortex membranes; from tissue; host or cells: rat kidney cortex membranes
T2 sequence (P07861 1-750): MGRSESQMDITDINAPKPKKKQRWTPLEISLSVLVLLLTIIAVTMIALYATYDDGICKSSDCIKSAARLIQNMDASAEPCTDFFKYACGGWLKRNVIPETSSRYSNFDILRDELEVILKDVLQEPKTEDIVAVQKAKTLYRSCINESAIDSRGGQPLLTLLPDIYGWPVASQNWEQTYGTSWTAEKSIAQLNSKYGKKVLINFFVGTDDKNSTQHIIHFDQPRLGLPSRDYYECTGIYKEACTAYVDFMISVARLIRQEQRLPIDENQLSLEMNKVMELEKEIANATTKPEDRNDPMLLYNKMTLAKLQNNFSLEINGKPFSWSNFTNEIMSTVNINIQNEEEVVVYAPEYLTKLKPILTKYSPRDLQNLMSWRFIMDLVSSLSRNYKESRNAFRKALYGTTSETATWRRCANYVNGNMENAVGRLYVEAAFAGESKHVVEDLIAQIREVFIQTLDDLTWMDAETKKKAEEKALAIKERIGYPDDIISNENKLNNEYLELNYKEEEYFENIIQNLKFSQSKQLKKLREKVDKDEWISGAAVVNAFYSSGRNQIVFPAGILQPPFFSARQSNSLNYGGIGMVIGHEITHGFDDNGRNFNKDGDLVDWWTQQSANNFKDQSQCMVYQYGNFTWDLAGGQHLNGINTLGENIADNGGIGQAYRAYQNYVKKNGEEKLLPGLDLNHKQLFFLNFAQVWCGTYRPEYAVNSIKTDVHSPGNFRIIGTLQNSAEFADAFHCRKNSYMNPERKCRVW
The assay is described as follows: in vitro inhibition of neutral endopeptidase (GAAP in vitro assay). The assay is classed as biochemical. Particulars: rat kidney cortex membranes, 500 μM glutaryl-Ala-Ala-Phe-2-naphthylamide, pH 7.4, 10 minutes at 25° C. How it is done:
as §1
The in vitro inhibition of neutral endopeptidase (NEP, EC 3.4.24.11) can be determined as follows:
Neutral endopeptidase 3.4.24.11 activity is determined by the hydrolysis of the substrate glutaryl-Ala-Ala-Phe-2-naphthylamide (GAAP) using a modified procedure of Orlowski and Wilk (1981). The incubation mixture (total volume 125 μl) contains 4.2 μg of protein (rat kidney cortex membranes prepared by method of Maeda et at, 1983), 50 mM tris buffer, pH 7.4 at 25° C., 500 μM substrate (final concentration), and leucine aminopeptidase M (2.5 μg). The mixture is incubated for 10 minutes at 25° C. and 100 μl of fast garnet (250 μg fast garnet/ml of 10% Tween 20 in 1M sodium acetate, pH 4.2) is added. Enzyme activity is measured spectrophotometrically at 540 nm. One unit of NEP 24.11 activity is defined as 1 nmol of 2-naphthylamine released per minute at 25° C. at pH 7.4. IC50 values are determined, i.e. the concentration of test compound required for 50% inhibition of the release of 2-naphthylamine.

By IC50 is commonly meant the concentration needed to halve the response being measured.

Turning to `O=C(N[C@H]1CCc2cccc3c2N(C1=O)[C@H](C(=O)O)C3)[C@@H](S)Cc1ccccc1` [2(a), 5-[((S)-2-mercapto-3-phenylpropionyl)-(S)-amino]-1,2,4,5,6,7-hexahydroazepino[3,2,1-hi]indole-4-one-2-(S)-carboxylic acid], the values for the IC50 in assay [1] and in assay [2] were about 30 nM and about 50 nM, respectively.

As for `CC(C)[C@H](S)C(=O)N[C@H]1CCc2cccc3c2N(C1=O)[C@H](C(=O)O)C3` [5(a), 5-[((S)-2-mercapto-3-methylbutanoyl)-(S)-amino]-1,2,4,5,6,7-hexahydro-azepino[3,2,1-hi]indole-4-one-2-(S)-carboxylic acid], in assay [1], the IC50 is about 30 nM.

Turning to `O=C(N[C@H]1CCc2cccc3c2N(C1=O)[C@H](C(=O)O)C3)[C@@H](CS)Cc1ccc(-c2ccccc2)cc1` [6(b), 5-[((S)-2-biphenyl-4-ylmethyl-3-mercapto-propionyl)-(S)-amino]-1,2,4,5,6,7-hexahydroazepino[3,2,1-hi]indole-4-one-2-(S)-carboxylic acid], the results for the IC50 in assay [1] and in assay [2] were about 77 nM and about 15 nM, respectively.
